In patent US20240382498A1, “NOVEL INHIBITOR OF HYPE-MEDIATED AMPYLATION” (Purdue Research Foundation, priority 2023, published 2024):
Residue numbers refer to the chain shown, from its start. Where two headings read alike, the source gives them in different places.

Key:
E234G HYPE = molecular target: T1, E234G HYPE (Homo sapiens, UniProt Q9BVA6, E234G); assay: Fluorescence polarization (FP) microplate autoAMPylation assay with Fl-ATP, E234G HYPE inhibitor HTS, cherrypick validation and concentration-response; type: biochemical; conditions: for % Inh. Cherry-pick / % Inh. HTS / inhibition at 10 µM: 10 μM compound; for Mean % Inh.: mean of HTS and cherrypick
T1 construct: Δ102 (aa 103-458) HYPE constructs (WT, E234G, and E234G/H363A); His6-SUMO (cleaved yes); made in house; host or cells: E. coli BL21-DE3-RILP
T1 sequence (Q9BVA6 103-458 E234G): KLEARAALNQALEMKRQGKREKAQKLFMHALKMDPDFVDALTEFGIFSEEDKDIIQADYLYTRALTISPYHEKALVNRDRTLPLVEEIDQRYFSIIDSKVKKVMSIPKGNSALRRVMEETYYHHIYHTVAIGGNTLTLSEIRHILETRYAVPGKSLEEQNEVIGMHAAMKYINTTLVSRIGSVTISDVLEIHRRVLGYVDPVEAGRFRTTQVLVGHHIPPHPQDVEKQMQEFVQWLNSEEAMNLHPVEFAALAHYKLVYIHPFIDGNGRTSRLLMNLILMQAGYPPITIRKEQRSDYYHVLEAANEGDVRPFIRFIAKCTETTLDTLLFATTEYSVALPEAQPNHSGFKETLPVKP
Method: Buffer optimization experiments were performed by incubating 0.4 μM of Δ102 HYPE enzyme with 25 nM Fl-ATP (final concentrations) in HTS buffer (50 mM HEPES (pH 7.5), 1 mM MgCl2, 0.1% Triton X-100, 1% DMSO) in the dark at room temperature for 10 min in 384-well black bottom, black wall microplates (20 μL reaction volume). Where specified, 1 mM MgCl2 was replaced with an equivalent concentration of MnCl2, or 0.1% Triton X-100 was replaced with 0.05% or 0.01% Trion X-100. Microplates were snap centrifuged at 1000 g for 10 sec. Microplates were loaded onto a BioTek BioStack NEO2 plate-reader and assessed for fluorescence polarization with 485/530 nm filters and a 55/50 gain adjustment.
A Multidrop 384 reagent dispenser (ThermoFisher) was used to add 0.4 μM HYPE, then 25 nM Fl-ATP (final concentrations) to 384-well black/black microplates (20 μL reaction volume). Both enzyme and nucleotide were dissolved in HTS Buffer. AMPylation Reactions were incubated for 10 min at room temperature in the dark. Microplates were snap centrifuged at 1000 g for 10 sec, then transferred to BioTek BioStack NEO2 plate-reader. Reactions were assessed for fluorescence polarization with 485/530 nm filters and a 55/50 gain adjustment. Z′, S/B, and CV values were determined by fitting the data to Eq. 1, 2, and 3, respectively,
An Echo Liquid Handler (Labcyte) was used to transfer 200 nL of DMSO-dissolved compounds via acoustic-coupled ejection from 10 mM source plates into 384-well black, flat-bottom, black-walled microplates, for a final compound concentration of 10 μM. Compounds were sourced from the following libraries: DIVERset (Chembridge), CNS-Set (Chembridge). The compounds went into columns 3-22 of each plate, while columns 1, 2, 23, and 24 were reserved for equivalent volume of 100% DMSO controls.
A Multidrop 384 reagent dispenser was used to pipette 0.4 μM of WT HYPE (final concentration) dissolved in HTS Buffer into columns 1-22 of the activator plates, and columns 1 and 2 of the inhibitor plates as positive controls. 0.4 μM of E234G HYPE was similarly added to columns 3-24 of the inhibitor plates, and columns 23 and 24 of the […]. Enzymes were then incubated with either compounds or DMSO for 10 min at room temperature.
A Multidrop 384 reagent dispenser was used to pipette 25 nM of Fl-ATP (final concentration) into all wells of each plate, giving a final reaction volume of 20 μL. Plates were then incubated for 10 min at room temperature in the dark, followed by a snap centrifugation at 1000 g for 10 sec. Microplates were loaded onto BioTek BioStack stacker and read in succession for fluorescence polarization with 485/530 nm filters and a 55/50 gain adjustment. Fluorescence polarization values were converted to fractional activation (FA) or fractional inhibition FI) values according to Eq. (3) or (4), respectively,
[formula] [formula] • where μp and μn are the means of the positive (E234G HYPE) and negative (WT HYPE) controls, respectively; and x is the measured value of fluorescence polarization.
Microplate “cherrypicking” validations were performed as described above.
A Multidrop 384 reagent dispenser was used to pipette 0.4 μM of WT or E234G HYPE (final concentrations) dissolved in HTS Buffer into designated microplate wells. 10 μM of DMSO-dissolved compounds (final concentrations) or equivalent volume of 100% DMSO were manually pipetted into their specified wells. Enzymes were incubated with compounds or DMSO for 10 min at room temperature. Reagent dispenser was then used to pipette 25 nM of Fl-ATP (final concentration) into each well, followed by a 10 min incubation at room temperature in the dark. Plates were snap centrifuged at 1000 g for 10 sec, then transferred to BioTek BioStack NEO2 plate-reader. Reactions were assessed for fluorescence polarization with 485/530 nm filters and a 55/50 gain adjustment. EC50 and IC50 values were determined by fitting polarization values to Eq. (5) and (6), respectively, […]

WT HYPE = molecular target: T2, WT HYPE (Homo sapiens, UniProt Q9BVA6); assay: Fluorescence in-gel autoAMPylation assay with WT HYPE and Fl-ATP; type: biochemical; conditions: 10 μM compound, versus DMSO control
T2 construct: Δ102 (aa 103-458) HYPE constructs (WT, E234G, and E234G/H363A); His6-SUMO (cleaved yes); made in house; host or cells: E. coli BL21-DE3-RILP
T2 sequence (Q9BVA6 103-458): T1 sequence (Q9BVA6 103-458 E234G) with G132E
Method: 1 μM of WT HYPE (final concentration) was preincubated with 10 μM DMSO-dissolved compound (final concentration) or equivalent volume of 100% DMSO at room temperature for 10 min. Reactions were run for 20 hr at 30° C. in the dark and began with the addition of 1 μM Fl-ATP (final concentration). Alternatively, E234G HYPE AMPylation reactions were run at 10 min due to its hyperactivity. All other parameters were held constant. All reactions were performed HTS Buffer (50 mM HEPES, 1 mM MgCl2, 0.1% Triton X-100, pH 7.50). All reactions were quenched with 4×SDS loading dye, boiled for 5 min at 95° C., and samples were run on 12% SDS-PAGE gels. Gels were imaged on a Typhoon 9500 FLA imager (General Electric) for fluorescence at 473 nm. Imaged gels were then stained with Coomassie Brilliant Blue, destained, and imaged for protein concentration. Where specified, 5 μM of T229A BiP (final concentration) was added to reactions before the addition of compound.

[1] = molecular target: T3, IbpA-Fic2 (IbpA-2) AMPylation of Cdc42 (Histophilus somni, UniProt Q06277); assay: Radioactive in-gel AMPylation assay with WT IbpA-Fic2, Cdc42 and α-32P-ATP (cross reactivity); type: biochemical; conditions: 10 μM compound, versus DMSO control
T3 construct: a construct solely containing the second of the two domains, IbpA-2; made in house
T3 sequence (Q06277 3640-3777): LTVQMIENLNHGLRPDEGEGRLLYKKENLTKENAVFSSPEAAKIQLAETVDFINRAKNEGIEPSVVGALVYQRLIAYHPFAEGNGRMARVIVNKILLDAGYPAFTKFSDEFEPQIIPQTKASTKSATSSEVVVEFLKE
Method: 1 μM of HYPE (final concentration) and (where specified) 5 μM of T229A BiP (final concentration) were preincubated with 10 μM DMSO-dissolved compound (final concentration) or equivalent volume of 100% DMSO at room temperature for 10 min in HTS Buffer. Reactions were run for 10 min at 30° C. and began with the addition of 0.01 μCi/μL α-32P-ATP (final concentration). All reactions were performed according to our previously described protocol for in vitro radioactive AMPylation assays19. Where specified, 5 μM of T229A BiP (final concentration) was added to reactions before the addition of compound.
All bacterial Fic specificity assays were conducted with 1 μM GST-tagged IbpA-Fic2, 5 μM GST-tagged Q61L Cdc42, and 0.01 μCi/μL α-32P-ATP (all final concentrations). All other reaction parameters were kept as per HYPE radiolabeled in-gel AMPylation assays.

HeLa cells = assay: MTT cell viability assay, HeLa; type: cell-based, human; conditions: HeLa, 48 hr
Method: The cell lines were procured from ATCC (American Type Culture Collection) and cultured in DMEM (Dulbecco's Modified Eagle Medium) supplemented with 10% FBS (fetal bovine serum) without antibiotics. Cells were grown and maintained in a humidified incubator at 37° C. with 5% CO2. For the MTT assay, cells were trypsinized and harvested at ˜80-90% confluency and seeded in 96 well plates at a density of 1×10^4 cells per well. The seeded cells were incubated overnight and treated with 1 μM, 3 μM, 5 μM, 7 μM, 10 μM, 20 μM, 30 μM or 50 μM (final concentration) of DMSO-dissolved compound for 48 hr. To rule out vehicle induced toxicity, only 0.5% of final DMSO concentration was added to the cells. Post-incubation, the compound treatment was removed and replaced with 0.5 mg/ml (final concentration) of freshly prepared MTT solution. After incubating for 3.5 hr at 37° C., 5% CO2 humidified incubator, MTT was carefully removed without aspirating the formazan crystals and replaced with equivalent volume of DMSO to dissolve the formazan crystals. The plates were then read using a multi-plate reader at 570 nm. The absorbance was recorded and % viability was calculated according to the following equation:
[formula] • where, Abt is the absorbance of compound treated cells and Abc is the absorbance of control cells.

HYPE = conditions: pilot screen of nearly 10,000 compounds; cited from earlier work
[2] = cherrypick validation, same FP assay
[3] = initial HTS, normalized to WT and E234G HYPE DMSO controls
[4] = cherrypick validation, same FP assay, read-out: % Inh. Cherry-pick
[5] = initial HTS, normalized to WT and E234G HYPE DMSO controls, read-out: % Inh. HTS

| SMILES | Mean % Inh. (E234G HYPE) | inhibition at 10 µM (E234G HYPE; [4]) | inhibition at 10 µM (E234G HYPE; [5]) | further results |
| --- | --- | --- | --- | --- |
| Cc1nn(-c2nc3ccccc3[nH]2)c2c1C(c1cc(Br)ccc1F)CC(=O)N2 (stereo not shown) [Compound I2.6] | 31.2% | 29.7% | 32.7% | – |
| Clc1ccc(C(c2ccc(Cl)cc2)n2cc[n+](CC(OCc3ccc(Cl)cc3Cl)c3ccc(Cl)cc3Cl)c2)cc1 (stereo not shown) [Compound A1, calmidazolium] | – | – | – | activation of WT HYPE autoAMPylation in gel (WT HYPE): bioactive above our DMSO control; effect on IbpA-2 AMPylation of Cdc42 [1]: lack of AMPylation enhancement; concentration impacting cell viability (HeLa cells): ≤ 1000 nM; effect on HYPE-mediated AMPylation in vitro (HYPE): enhance |
| Oc1cc(-c2ccc(F)cc2)nn1-c1nc2ccccc2[nH]1 [Compound I2.12] | 30.4% | 33.6% | 27.1% | – |
| CCc1ccc(N2CC(c3noc(-c4ccc(C#N)cc4)n3)CC2=O)cc1 (stereo not shown) [Compound I2.9] | 27.5% | 27.8% | 27.2% | – |
| CCCc1cc(O)n(-c2nc3ccccc3[nH]2)n1 [Compound I2.4] | 29.4% | 31% | 27.8% | – |
| Cc1nn(-c2nc3ccccc3[nH]2)c2c1C(c1ccc(F)cc1F)CC(=O)N2 (stereo not shown) [Compound I2.5] | 28.2% | 32.9% | 23.5% | – |

Further lines, with some results ahead:

| Mean % Inh. (E234G HYPE) | inhibition at 10 µM (E234G HYPE; [4]) | inhibition at 10 µM (E234G HYPE; [5]) | SMILES | further results |
| --- | --- | --- | --- | --- |
| 32.9% | – | – | CN(Cc1cccc2cnccc12)C(=O)c1cnc(-c2ccccn2)nc1O [Compound I2.3] | % Inh. Cherry-pick (E234G HYPE; [2]): 30.7%; % Inh. HTS (E234G HYPE; [3]): 35.0% |
| 31.1% | – | – | CCCCn1ccnc1C1CCCN(Cc2ccccn2)C1 (stereo not shown) [Compound I2.1] | % Inh. Cherry-pick (E234G HYPE; [2]): 29.7%; % Inh. HTS (E234G HYPE; [3]): 32.5% |
| 22.3% | – | – | Oc1ccc(CN2CCCCC2)c2cccnc12 [Compound I2.11] | % Inh. Cherry-pick (E234G HYPE; [2]): 24.6%; % Inh. HTS (E234G HYPE; [3]): 19.9% |
| 27.6% | 34.2% | 20.9% | O=C1Nc2ccc(Br)cc2C12NN=C(c1ccccc1)S2 (stereo not shown) [Compound I2.7] | – |
| 21.5% | 22.7% | 20.3% | CN(Cc1ccccn1)C(C(=O)O)c1ccc2c(c1)OCO2 (stereo not shown) [Compound I2.2] | – |
